In ChEMBL document CHEMBL3397027, “Design, synthesis and evaluation of chromone-2-carboxamido-alkylbenzylamines as multifunctional agents for the treatment of Alzheimer's disease” (Bioorg Med Chem, 2015):
Active and inactive are the calls of the source. The calls are words filed in the database; no cut-off is given here.

How the values were obtained:
Acetylcholinesterase [1] = biological target: Acetylcholinesterase (Electrophorus electricus, UniProt O42275); experiment: Inhibition of electric eel AChE using acetylthiocholine iodide as substrate after 15 mins by Ellman method
Acetylcholinesterase (Electrophorus electricus, UniProt O42275), sequence (O42275 whole entry): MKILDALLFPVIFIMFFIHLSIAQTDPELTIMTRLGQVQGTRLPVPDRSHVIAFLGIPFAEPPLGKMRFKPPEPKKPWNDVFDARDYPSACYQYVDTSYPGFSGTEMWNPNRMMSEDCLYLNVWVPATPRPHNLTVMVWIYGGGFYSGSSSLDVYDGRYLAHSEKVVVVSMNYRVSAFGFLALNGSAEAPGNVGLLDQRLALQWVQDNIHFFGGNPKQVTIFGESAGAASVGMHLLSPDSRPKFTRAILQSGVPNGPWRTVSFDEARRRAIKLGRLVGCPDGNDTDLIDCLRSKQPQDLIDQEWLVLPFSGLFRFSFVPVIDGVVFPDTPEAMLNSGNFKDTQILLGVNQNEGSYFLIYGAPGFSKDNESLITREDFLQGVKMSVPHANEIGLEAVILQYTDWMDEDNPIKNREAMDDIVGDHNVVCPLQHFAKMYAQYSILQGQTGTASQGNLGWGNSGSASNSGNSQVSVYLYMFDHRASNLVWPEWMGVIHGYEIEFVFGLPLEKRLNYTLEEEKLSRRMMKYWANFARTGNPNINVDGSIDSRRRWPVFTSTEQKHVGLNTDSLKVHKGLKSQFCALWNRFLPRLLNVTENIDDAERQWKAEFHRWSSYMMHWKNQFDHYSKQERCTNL

Acetylcholinesterase [2] = biological target: T1, Acetylcholinesterase (Rattus norvegicus, UniProt P37136); experiment: Inhibition of AChE from rat cortex homogenate using acetylthiocholine iodide as substrate after 15 mins by Ellman method
T1 sequence (P37136 whole entry): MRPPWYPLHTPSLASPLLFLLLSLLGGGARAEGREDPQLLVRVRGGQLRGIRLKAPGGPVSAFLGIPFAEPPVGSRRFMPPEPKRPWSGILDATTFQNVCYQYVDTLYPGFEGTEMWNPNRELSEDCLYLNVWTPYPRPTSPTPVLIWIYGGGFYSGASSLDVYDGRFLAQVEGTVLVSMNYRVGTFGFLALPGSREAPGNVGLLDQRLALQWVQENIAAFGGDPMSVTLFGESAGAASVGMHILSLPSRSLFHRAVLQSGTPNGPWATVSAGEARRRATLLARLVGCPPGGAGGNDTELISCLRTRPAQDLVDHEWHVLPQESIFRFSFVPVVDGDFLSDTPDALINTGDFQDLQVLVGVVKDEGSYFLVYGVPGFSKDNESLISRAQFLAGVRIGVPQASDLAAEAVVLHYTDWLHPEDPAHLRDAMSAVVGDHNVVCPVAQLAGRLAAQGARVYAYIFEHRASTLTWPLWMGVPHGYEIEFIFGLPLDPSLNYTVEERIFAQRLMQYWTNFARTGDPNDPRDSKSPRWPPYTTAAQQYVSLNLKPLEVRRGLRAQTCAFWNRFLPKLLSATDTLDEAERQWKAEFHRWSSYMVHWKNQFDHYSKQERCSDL

[3] = Antioxidant activity assessed as AAPH scavenging activity measured as trolox equivalent at 5 uM after 15 mins by ORAC-FL method relative to control; format: physicochemical; details: 0.25 h
[4] = Inhibition of rat serum BuChE using butyrylthiocholine iodide as substrate after 15 mins by Ellman method; format: cell-free
[5] = biological target: Amyloid-beta precursor protein (Homo sapiens) (UniProt P05067); experiment: Inhibition of Cu2+-mediated aggregation of amyloid beta (1-42) (unknown origin) at 25 uM after 24 hrs by thioflavin T fluorescence-based fluorimetric method
Amyloid-beta precursor protein (Homo sapiens), sequence (P05067 whole entry): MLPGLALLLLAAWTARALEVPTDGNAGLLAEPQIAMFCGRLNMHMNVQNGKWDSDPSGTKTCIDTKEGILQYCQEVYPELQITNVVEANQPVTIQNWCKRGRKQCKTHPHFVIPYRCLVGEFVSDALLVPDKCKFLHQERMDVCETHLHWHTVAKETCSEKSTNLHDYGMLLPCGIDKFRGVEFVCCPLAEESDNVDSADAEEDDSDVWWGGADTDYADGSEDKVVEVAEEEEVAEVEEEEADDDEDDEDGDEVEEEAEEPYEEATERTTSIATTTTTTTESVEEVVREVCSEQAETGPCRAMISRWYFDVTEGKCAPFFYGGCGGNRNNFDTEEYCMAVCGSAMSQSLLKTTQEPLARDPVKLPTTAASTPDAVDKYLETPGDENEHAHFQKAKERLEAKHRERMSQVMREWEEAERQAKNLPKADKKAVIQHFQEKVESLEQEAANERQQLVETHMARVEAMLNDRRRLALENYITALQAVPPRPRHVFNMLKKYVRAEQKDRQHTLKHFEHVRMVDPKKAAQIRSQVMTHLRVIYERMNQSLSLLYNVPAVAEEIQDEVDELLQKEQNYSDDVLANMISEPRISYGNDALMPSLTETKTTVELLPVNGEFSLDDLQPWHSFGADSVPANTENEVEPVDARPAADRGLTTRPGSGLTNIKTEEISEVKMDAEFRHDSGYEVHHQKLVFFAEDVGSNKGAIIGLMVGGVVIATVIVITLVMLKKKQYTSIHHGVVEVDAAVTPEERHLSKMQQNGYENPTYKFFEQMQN

Rattus norvegicus = species on record: Rattus norvegicus; experiment: Selectivity index, ratio of IC50 for rat serum BuChE to IC50 for AChE from rat cortex homogenate; format: cell-free
[6] = biological target: Amyloid-beta precursor protein (Homo sapiens) (UniProt P05067); experiment: Inhibition of self-mediated aggregation of amyloid beta (1-42) (unknown origin) at 25 uM after 24 hrs by thioflavin T fluorescence-based fluorimetric method
[7] = Metal chelating activity of the compound assessed as formation of copper-compound complex in methanol solution at 37.5 uM after 30 mins by UV-vis spectrometry; format: physicochemical; details: 0.5 h
[8] = biological target: Acetylcholinesterase (Electrophorus electricus) (UniProt O42275); experiment: Mixed-type inhibition of electric eel AChE using acetylthiocholine iodide as substrate at 0.0625 to 0.25 uM after 15 mins by Lineweaver-Burk plot method
Acetylcholinesterase (Electrophorus electricus), sequence (O42275 24-633 limits assumed): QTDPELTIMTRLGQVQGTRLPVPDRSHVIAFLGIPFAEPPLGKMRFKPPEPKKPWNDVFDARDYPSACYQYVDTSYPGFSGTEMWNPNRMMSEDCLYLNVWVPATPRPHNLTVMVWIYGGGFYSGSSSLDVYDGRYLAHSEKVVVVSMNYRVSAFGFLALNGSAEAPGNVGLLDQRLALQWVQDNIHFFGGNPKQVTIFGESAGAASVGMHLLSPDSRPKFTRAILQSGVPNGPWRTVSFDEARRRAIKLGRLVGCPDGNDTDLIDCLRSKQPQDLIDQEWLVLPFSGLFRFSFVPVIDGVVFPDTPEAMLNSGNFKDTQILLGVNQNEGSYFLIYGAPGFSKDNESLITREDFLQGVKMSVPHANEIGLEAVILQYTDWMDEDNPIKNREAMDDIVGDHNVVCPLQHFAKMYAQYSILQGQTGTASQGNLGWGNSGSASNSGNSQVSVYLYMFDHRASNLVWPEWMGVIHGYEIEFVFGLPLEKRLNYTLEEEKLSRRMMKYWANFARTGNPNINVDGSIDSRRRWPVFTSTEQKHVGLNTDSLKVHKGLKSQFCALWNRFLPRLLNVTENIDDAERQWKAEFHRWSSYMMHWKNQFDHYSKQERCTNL

[9] = Metal chelating activity of the compound assessed as formation of iron-compound complex in methanol solution at 37.5 uM after 30 mins by UV-vis spectrometry; format: physicochemical; details: 0.5 h
[10] = Metal chelating activity of the compound assessed as formation of zinc-compound complex in methanol solution at 37.5 uM after 30 mins by UV-vis spectrometry; format: physicochemical; details: 0.5 h
[11] = Metal chelating activity of the compound assessed as formation of aluminium-compound complex in methanol solution at 37.5 uM after 30 mins by UV-vis spectrometry; format: physicochemical; details: 0.5 h

SMILES	IC50 (Acetylcholinesterase [1]; read-out: IC50) [µM]	IC50 (Acetylcholinesterase [2]) [µM]	fold change (FC) [3]	IC50 [4] [µM]	inhibition [5] [%]	Ratio IC50 (Rattus norvegicus)	inhibition [6] [%]	Activity [7]	inhibition [8]	Activity [9]	Activity [10]	Activity [11]	IC50 (Acetylcholinesterase [1])
COc1cc(O)c2c(=O)cc(C(=O)O)oc2c1	> 200	> 200	0.87	> 200	–	–	–	–	–	–	–	–	–
COc1cc(O)c2c(=O)cc(C(=O)NCCCN(C)Cc3ccccc3)oc2c1	3.12	15.3	0.46	> 200	24.3	> 13.1	23	–	–	–	–	–	–
CCN(CCCCNC(=O)c1cc(=O)c2c(O)cc(OC)cc2o1)Cc1ccc(N(C)C)cc1	9.05	7.45	2.2	57.5	28.8	7.7	37.1	–	–	–	–	–	–
COc1cc(O)c2c(=O)cc(C(=O)NCCCCCCN(C)Cc3ccccc3OC)oc2c1	0.58	1.59	1.3	43.3	48.1	27.2	43.9	–	–	–	–	–	–
CCN(CCCCCCNC(=O)c1cc(=O)c2c(O)cccc2o1)Cc1ccccc1OC	0.53	0.19	0.87	23.2	55.6	122	63	–	–	–	–	–	–
CCN(CCCCNC(=O)c1cc(=O)c2c(O)cccc2o1)Cc1ccccc1OC	0.55	0.07	0.83	51.5	48.3	736	59.2	Active	Active	Not Active	Not Active	Not Active	–
COc1ccccc1CN(C)CCCNC(=O)c1cc(=O)c2c(O)cccc2o1	–	9.51	1.64	102	23.8	10.7	50.6	–	–	–	–	–	Not Active
COc1cc(O)c2c(=O)cc(C(=O)NCCCCCCN(C)Cc3ccccc3)oc2c1	0.25	3.03	1	50.1	37.1	16.5	33.5	–	–	–	–	–	–
CCN(CCCCCCNC(=O)c1cc(=O)c2c(O)cc(OC)cc2o1)Cc1ccccc1	1.38	1.7	0.65	53.5	42.6	31.5	28.6	–	–	–	–	–	–
COc1cc(O)c2c(=O)cc(C(=O)NCCCCN3CCOc4ccccc4C3)oc2c1	> 200	> 200	0.68	> 200	35	–	40.9	–	–	–	–	–	–
CCN(CCCCCCNC(=O)c1cc(=O)c2c(O)cc(OC)cc2o1)Cc1ccccc1OC	0.56	0.23	0.76	49.9	52	217	58.2	–	–	–	–	–	–
COc1cc(O)c2c(=O)cc(C(=O)NCCCCN(C)Cc3ccccc3OC)oc2c1	3.5	2.9	0.55	82.1	36.3	28.3	47.5	–	–	–	–	–	–
CN(C)c1cc(O)c2c(=O)cc(C(=O)O)oc2c1	> 200	> 200	0.95	> 200	–	–	–	–	–	–	–	–	–
CCN(CCCNC(=O)c1cc(=O)c2c(O)cccc2o1)Cc1ccccc1OC	13.9	0.41	1.13	93.4	35.2	228	48.7	–	–	–	–	–	–
CCN(CCCCCCNC(=O)c1cc(=O)c2c(O)cc(O)cc2o1)Cc1ccccc1OC	1.4	0.87	2.25	> 200	28.7	> 200	39.4	–	–	–	–	–	–
CCN(CCCCNC(=O)c1cc(=O)c2c(O)cc(OC)cc2o1)Cc1ccccc1	1.45	1.81	0.65	128	34.1	71	39	–	–	–	–	–	–
CCN(CCCNC(=O)c1cc(=O)c2c(O)cc(OC)cc2o1)Cc1ccccc1OC	1.85	0.88	0.54	197	27.2	224	47.9	–	–	–	–	–	–

SMILES	IC50 (Acetylcholinesterase [1]; read-out: IC50) [µM]	IC50 (Acetylcholinesterase [2]) [µM]	fold change (FC) [3]	IC50 [4] [µM]	inhibition [5] [%]	Ratio IC50 (Rattus norvegicus)	inhibition [6] [%]	Activity [7]	inhibition [8]	Activity [9]	Activity [10]	Activity [11]	IC50 (Acetylcholinesterase [1])
COc1cc(O)c2c(=O)cc(C(=O)NCCCN(C)Cc3ccccc3OC)oc2c1	9.8	4.01	0.93	171	28.7	42.5	43.6	–	–	–	–	–	–
COc1ccccc1CN(C)CCCCNC(=O)c1cc(=O)c2c(O)cccc2o1	3.29	1.37	0.81	55	24.1	40.1	49.3	–	–	–	–	–	–
CN(CCCNC(=O)c1cc(=O)c2c(O)cccc2o1)Cc1ccccc1	24.4	19.6	0.85	120	25.8	6.1	43.9	–	–	–	–	–	–
O=C(O)c1cc(=O)c2c(O)cc(O)cc2o1	> 200	> 200	2.01	> 200	–	–	–	–	–	–	–	–	–
COc1cc(/C=C/C(=O)CC(=O)/C=C/c2ccc(O)c(OC)c2)ccc1O	–	–	–	–	58	–	–	–	–	–	–	–	–
CCN(CCCCNC(=O)c1cc(=O)c2c(O)cc(N(C)C)cc2o1)Cc1ccccc1OC	4.02	0.91	1.05	109	36.9	120	41.1	–	–	–	–	–	–
COc1cc(O)c2c(=O)cc(C(=O)NCCCCN(C)Cc3ccccc3)oc2c1	5.86	7.5	0.79	135	35.3	17.9	24.4	–	–	–	–	–	–
COc1cc2c(cc1OC)C(=O)C(CC1CCN(Cc3ccccc3)CC1)C2 (stereo unspecified) [DONEPEZIL]	–	–	–	20.7	–	–	–	–	–	–	–	–	–
C#CCN(CCCCNC(=O)c1cc(=O)c2c(O)cc(OC)cc2o1)Cc1ccccc1OC	73	13.6	0.56	57.3	21.5	4.2	22.4	–	–	–	–	–	–
CCN(CCCCNC(=O)c1cc(=O)c2c(O)cc(OC)cc2o1)Cc1ccccc1OC	1.16	0.33	0.62	86.5	38.9	262	51	–	–	–	–	–	–
CCN(CCCCNC(=O)c1cc(=O)c2c(O)cc(N(C)C)cc2o1)Cc1ccccc1N(C)C	3.53	1.39	1.34	149	30.7	107	40.8	–	–	–	–	–	–
CCOC(=O)c1cc(=O)c2c(O)cccc2o1	> 200	> 200	0.78	> 200	–	–	–	–	–	–	–	–	–
CCN(CCCNC(=O)c1cc(=O)c2c(O)cc(OC)cc2o1)Cc1ccccc1	11.2	7.94	0.66	83.5	31.5	10.5	21.1	–	–	–	–	–	–
CCN(CCCCNC(=O)c1cc(=O)c2c(O)cc(O)cc2o1)Cc1ccccc1OC	36.2	1.11	2.3	141	32.1	127	37.8	–	–	–	–	–	–
CCN(CCCNC(=O)c1cc(=O)c2c(O)cc(O)cc2o1)Cc1ccccc1OC	49.7	6.85	2.1	> 200	18.1	> 29.2	35.1	–	–	–	–	–	–
CCN(CCCCNC(=O)c1cc(=O)c2c(O)cc(OC)cc2o1)Cc1ccccc1N(C)C	0.92	0.31	0.97	74.1	20	239	25.6	–	–	–	–	–	–
